In ChEMBL document CHEMBL4602680, “Dammarane-Type Triterpenoids from the Roots of Rhus chinensis and Their Preventive Effects on Zebrafish Heart Failure and Thrombosis” (J Nat Prod, 2020):
Activity calls are given as the source filed them. The calls are words filed in the database; no cut-off is given here.

Assays:
Danio rerio [1] = species: Danio rerio; test: prevention of heart failure in verapamil treated zebrafish AB assessed as efficacy on cardiac output at 0.5 ug/ml preincubated for 4.5 hrs followed by verapamil treatment and measured after 30 mins relative to verapamil alone; type: functional
[2] = Toxicity in zebrafish assessed as induction of adverse effect at 0.5 ug/ml in presence of ponatinib; set-up: species or system Danio rerio; conditions: in vivo
[3] = Toxicity in zebrafish assessed as induction of adverse effect at 0.5 ug/ml; set-up: species or system Danio rerio; conditions: in vivo
Danio rerio [4] = species: Danio rerio; test: Prevention of heart failure in verapamil treated zebrafish AB assessed as efficacy on heart dilation at 0.5 ug/ml preincubated for 4.5 hrs followed by verapamil treatment and measured after 30 mins relative to verapamil alone; type: functional
[5] = Toxicity in zebrafish assessed as induction of adverse effect at 0.5 ug/ml in presence of verapamil; set-up: species or system Danio rerio; conditions: in vivo
Danio rerio [6] = species: Danio rerio; test: prevention of heart failure in verapamil treated zebrafish AB assessed as efficacy on heart rate at 0.5 ug/ml preincubated for 4.5 hrs followed by verapamil treatment and measured after 30 mins relative to verapamil alone; type: functional
Danio rerio [7] = species: Danio rerio; test: Antithrombotic activity in ponatinib treated zebrafish AB assessed as preventive efficacy on thrombosis at 0.5 ug/ml incubated for 18 hrs by O-dianisidine staining based assay relative to ponatinib alone; type: functional
Danio rerio [8] = species: Danio rerio; test: prevention of heart failure in verapamil treated zebrafish AB assessed as efficacy on blood flow velocity at 0.5 ug/ml preincubated for 4.5 hrs followed by verapamil treatment and measured after 30 mins relative to verapamil alone; type: functional
Danio rerio [9] = species: Danio rerio; test: prevention of heart failure in verapamil treated zebrafish AB assessed as efficacy on venous congestion at 0.5 ug/ml preincubated for 4.5 hrs followed by verapamil treatment and measured after 30 mins relative to verapamil alone; type: functional
[10] = Toxicity in zebrafish assessed as effect on blood flow at 0.5 ug/ml in presence of ponatinib; set-up: species or system Danio rerio; conditions: in vivo
[11] = Toxicity in zebrafish assessed as effect on blood flow at 0.5 ug/ml in presence of verapamil; set-up: species or system Danio rerio; conditions: in vivo
Danio rerio [12] = species: Danio rerio; test: Prevention of heart failure in verapamil treated zebrafish AB assessed as efficacy on heart dilation preincubated for 4.5 hrs followed by verapamil treatment and measured after 30 mins; type: functional, organism-based
Danio rerio [13] = species: Danio rerio; test: Prevention of heart failure in verapamil treated zebrafish AB assessed as efficacy on heart dilation at 10 ug/ml preincubated for 4.5 hrs followed by verapamil treatment and measured after 30 mins relative to verapamil alone; type: functional
Danio rerio [14] = species: Danio rerio; test: prevention of heart failure in verapamil treated zebrafish AB assessed as efficacy on cardiac output at 10 ug/ml preincubated for 4.5 hrs followed by verapamil treatment and measured after 30 mins relative to verapamil alone; type: functional
Danio rerio [15] = species: Danio rerio; test: prevention of heart failure in verapamil treated zebrafish AB assessed as efficacy on blood flow velocity at 10 ug/ml preincubated for 4.5 hrs followed by verapamil treatment and measured after 30 mins relative to verapamil alone; type: functional
Danio rerio [16] = species: Danio rerio; test: prevention of heart failure in verapamil treated zebrafish AB assessed as efficacy on venous congestion at 10 ug/ml preincubated for 4.5 hrs followed by verapamil treatment and measured after 30 mins relative to verapamil alone; type: functional
Danio rerio [17] = species: Danio rerio; test: Antithrombotic activity in ponatinib treated zebrafish AB assessed as preventive efficacy on thrombosis at 45 ug/ml incubated for 18 hrs by O-dianisidine staining based assay relative to ponatinib alone; type: functional
Danio rerio [18] = species: Danio rerio; test: prevention of heart failure in verapamil treated zebrafish AB assessed as efficacy on heart rate at 0.8 ug/ml preincubated for 4.5 hrs followed by verapamil treatment and measured after 30 mins relative to verapamil alone; type: functional
Danio rerio [19] = species: Danio rerio; test: prevention of heart failure in verapamil treated zebrafish AB assessed as efficacy on cardiac output at 0.8 ug/ml preincubated for 4.5 hrs followed by verapamil treatment and measured after 30 mins relative to verapamil alone; type: functional
Danio rerio [20] = species: Danio rerio; test: prevention of heart failure in verapamil treated zebrafish AB assessed as efficacy on venous congestion at 0.8 ug/ml preincubated for 4.5 hrs followed by verapamil treatment and measured after 30 mins relative to verapamil alone; type: functional
Danio rerio [21] = species: Danio rerio; test: prevention of heart failure in verapamil treated zebrafish AB assessed as efficacy on blood flow velocity at 0.8 ug/ml preincubated for 4.5 hrs followed by verapamil treatment and measured after 30 mins relative to verapamil alone; type: functional
Danio rerio [22] = species: Danio rerio; test: Prevention of heart failure in verapamil treated zebrafish AB assessed as efficacy on heart dilation at 0.8 ug/ml preincubated for 4.5 hrs followed by verapamil treatment and measured after 30 mins relative to verapamil alone; type: functional

| SMILES | Activity (Danio rerio [1]) [%] | Activity [2] | Activity [3] | Activity (Danio rerio [4]) [%] | Activity [5] | Activity (Danio rerio [6]) [%] | Activity (Danio rerio [7]) [%] | Activity (Danio rerio [8]) [%] | Activity (Danio rerio [9]) [%] | further results |
| --- | --- | --- | --- | --- | --- | --- | --- | --- | --- | --- |
| C=C([C@@H]1CC=C(C)C(=O)O1)[C@@H]1CC[C@]2(C)[C@@H]1CC[C@@H]1[C@@]3(C)CCC(=O)C(C)(C)[C@@H]3CC[C@]12C | 41 | Non-Toxic | Non-Toxic | 55 | Non-Toxic | 27 | 65 | 67 | 23 | – |
| C=C([C@@H]1CC=C(C)C(=O)O1)[C@@H]1CC[C@]2(C)[C@@H]1CC[C@@H]1[C@@]34CO[C@](O)([C@@H](O)C3)C(C)(C)[C@@H]4CC[C@]12C | 22 | Non-Toxic | Non-Toxic | 73 | Non-Toxic | 57 | 76 | 27 | 31 | – |
| C=C([C@@H]1CC=C(C)C(=O)O1)[C@@H]1CC[C@]2(C)[C@@H]1CC[C@@H]1[C@]34CC[C@@](O)(OC3)C(C)(C)[C@@H]4CC[C@]12C | – | – | Non-Toxic | – | – | – | – | – | – | Activity [10]: Toxic; Activity [11]: Toxic |
| C=C([C@@H]1CC[C@]2(C)[C@@H]1CC[C@@H]1[C@]34CC[C@@](O)(OC3)C(C)(C)[C@@H]4CC[C@]12C)[C@@H]1OC(=O)C(C)=C[C@H]1O | 64 | Non-Toxic | Non-Toxic | 63 | Non-Toxic | 54 | 10 | 65 | 59 | – |
| NS(=O)(=O)c1cc2c(cc1Cl)NCNS2(=O)=O [HYDROCHLOROTHIAZIDE] | 53 | – | – | 56 | – | – | – | 33 | 60 | – |
| C=C(CC/C=C(/C)C(=O)O)[C@@H]1CC[C@]2(C)[C@@H]1CC[C@@H]1[C@]34CC[C@@](O)(OC3)C(C)(C)[C@@H]4CC[C@]12C | 72 | Non-Toxic | Non-Toxic | 65 | Non-Toxic | 77 | 24 | 83 | 62 | – |
| C=C(CCC=C(CO)CO)[C@@H]1CC[C@]2(C)[C@@H]1CC[C@@H]1[C@@]3(C)CCC(=O)C(C)(C)[C@@H]3CC[C@]12C | – | Non-Toxic | Non-Toxic | – | Non-Toxic | – | – | – | – | Activity (Danio rerio [12]): inactive |
| CCOC(=O)[C@H](CCc1ccccc1)N[C@@H](C)C(=O)N1CCC[C@H]1C(=O)O [ENALAPRIL] | – | – | – | – | – | – | – | – | – | Activity (Danio rerio [13]): 31%; Activity (Danio rerio [14]): 34%; Activity (Danio rerio [15]): 26%; Activity (Danio rerio [16]): 34% |
| CC(=O)Oc1ccccc1C(=O)O [ASPIRIN] | – | – | – | – | – | – | – | – | – | Activity (Danio rerio [17]): 86% |
| C=C([C@@H]1CC=C(C)C(=O)O1)[C@@H]1CC[C@]2(C)[C@@H]1CC[C@@H]1[C@@]34CO[C@](O)(C[C@H]3O)C(C)(C)[C@@H]4CC[C@]12C | 58 | Non-Toxic | Non-Toxic | 66 | Non-Toxic | 60 | 68 | 65 | 51 | – |
| CCCCC1=NC2(CCCC2)C(=O)N1Cc1ccc(-c2ccccc2-c2nnn[nH]2)cc1 [IRBESARTAN] | 25 | – | – | 30 | – | – | – | 15 | 36 | – |
| C[C@H]1O[C@@H](O[C@H]2[C@@H](O)C[C@H](O[C@H]3[C@@H](O)C[C@H](O[C@H]4CC[C@@]5(C)[C@H](CC[C@@H]6[C@@H]5C[C@@H](O)[C@]5(C)[C@@H](C7=CC(=O)OC7)CC[C@]65O)C4)O[C@@H]3C)O[C@@H]2C)C[C@H](O)[C@@H]1O [DIGOXIN] | 40 | – | – | 53 | – | – | – | 28 | 73 | Activity (Danio rerio [18]): 52%; Activity (Danio rerio [19]): 41%; Activity (Danio rerio [20]): 67%; Activity (Danio rerio [21]): 38%; Activity (Danio rerio [22]): 68% |
| COCCc1ccc(OCC(O)CNC(C)C)cc1 (configuration not stated) [METOPROLOL] | 35 | – | – | 34 | – | – | – | 17 | 29 | – |
| C/C(=C/CC/C(CO)=C1\CC[C@]2(C)[C@@H]1CC[C@@H]1[C@@]3(C)CCC(=O)C(C)(C)[C@@H]3CC[C@]12C)CO | – | Non-Toxic | Non-Toxic | – | Non-Toxic | – | – | – | – | Activity (Danio rerio [12]): inactive |
